Read-outs that look alike come from different tables or passages of the source.
How the values were obtained:
NCI-H358 (K-Ras G12C) = experiment: CellTiter-Glo cell viability assay, 5-day treatment; format: cell-based; conditions: Homo sapiens, NCI-H358, 120 h, 5-day treatment; read-out: H358 Cell Viability assay data (K-Ras G12C, IC50)
How it was run: (§1)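 Seeded cells received test compound by direct dispensing. On day 5 the plates sat at room temperature approximately 30 minutes, then luminescence was measured. Data were normalized to DMSO and curve-fitted with four parameters.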

Capan-1 (K-Ras G12V) = experiment: as above; format: cell-based; conditions: Homo sapiens, CAPAN-1, 120 h, 5-day treatment; read-out: Capan-1 Cell Viability assay data (K-Ras G12V, IC50)
How it was run: as §1

KRAS G13C = KRAS G13C (Homo sapiens, UniProt P01116+P62937, G13C); experiment: Disruption of BRAF RBD interaction with Ras (FRET / MOA assay, with Cyclophilin A); format: biochemical
Chain of KRAS G13C (P01116 1-169 isoform P01116-2 G13C): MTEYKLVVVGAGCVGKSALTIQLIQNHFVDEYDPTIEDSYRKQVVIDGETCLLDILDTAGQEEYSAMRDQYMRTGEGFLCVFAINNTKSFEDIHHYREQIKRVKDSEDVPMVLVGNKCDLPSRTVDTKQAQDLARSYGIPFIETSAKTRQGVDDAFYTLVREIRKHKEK
Chain of KRAS G13C (P62937 whole entry): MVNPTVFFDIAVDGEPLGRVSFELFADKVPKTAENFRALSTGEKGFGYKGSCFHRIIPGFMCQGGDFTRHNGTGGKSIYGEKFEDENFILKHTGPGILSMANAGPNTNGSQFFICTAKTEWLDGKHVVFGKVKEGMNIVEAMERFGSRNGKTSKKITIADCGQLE
How it was run: (§2)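 TR-FRET readout: a drop in ratio relative to DMSO wells marks disruption of the K-Ras:BRAF RBD complex via compound-induced K-Ras–Cyclophilin A ternary complex. Dosing used ten 3-fold steps from 30 μM final, 3 h at 25 °C, then Eu-anti-His 10 nM plus APC-anti-GST 50 nM for another 1.5 h. Values are IC50s.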

KRAS G12C = KRAS G12C (Homo sapiens, UniProt P01116+P62937, G12C); experiment: as above; format: biochemical
Chain of KRAS G12C (P01116 1-169 isoform P01116-2 G12C): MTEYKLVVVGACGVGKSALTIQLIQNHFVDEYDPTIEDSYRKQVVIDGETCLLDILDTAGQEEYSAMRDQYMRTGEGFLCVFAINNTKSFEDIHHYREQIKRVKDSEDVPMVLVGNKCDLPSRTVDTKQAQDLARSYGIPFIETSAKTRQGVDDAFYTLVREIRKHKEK
Chain of KRAS G12C (P62937 whole entry): as the sequence (P62937 whole entry) above
How it was run: as §2

KRAS WT = KRAS WT (Homo sapiens, UniProt P01116+P62937); experiment: as above; format: biochemical
Chain of KRAS WT (P01116 1-169 isoform P01116-2 limits assumed): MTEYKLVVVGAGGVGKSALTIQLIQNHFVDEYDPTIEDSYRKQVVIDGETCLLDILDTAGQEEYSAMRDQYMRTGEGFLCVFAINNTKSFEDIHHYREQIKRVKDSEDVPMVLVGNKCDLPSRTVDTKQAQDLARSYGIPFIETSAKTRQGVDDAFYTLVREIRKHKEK
Chain of KRAS WT (P62937 whole entry): as the sequence (P62937 whole entry) above
How it was run: as §2

NRAS G12C = NRAS G12C (Homo sapiens, UniProt P01111+P62937, G12C); experiment: as above; format: biochemical
Chain of NRAS G12C (P01111 whole entry G12C): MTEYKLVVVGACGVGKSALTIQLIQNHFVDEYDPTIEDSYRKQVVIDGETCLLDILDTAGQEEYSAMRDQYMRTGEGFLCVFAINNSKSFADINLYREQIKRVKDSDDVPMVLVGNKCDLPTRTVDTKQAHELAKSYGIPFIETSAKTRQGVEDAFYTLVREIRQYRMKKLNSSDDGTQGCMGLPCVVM
Chain of NRAS G12C (P62937 whole entry): as the sequence (P62937 whole entry) above

KRAS G13D = KRAS G13D (Homo sapiens, UniProt P01116+P62937, G13D); experiment: as above; format: biochemical
Chain of KRAS G13D (P01116 1-169 isoform P01116-2 G13D limits assumed): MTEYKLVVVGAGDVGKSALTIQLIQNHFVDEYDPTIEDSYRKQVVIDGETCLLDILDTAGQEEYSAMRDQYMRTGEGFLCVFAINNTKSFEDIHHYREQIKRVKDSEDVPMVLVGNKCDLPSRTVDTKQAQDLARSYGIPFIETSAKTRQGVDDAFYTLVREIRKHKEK
Chain of KRAS G13D (P62937 whole entry): as the sequence (P62937 whole entry) above
How it was run: as §2

KRAS G12V = KRAS G12V (Homo sapiens, UniProt P01116+P62937, G12V); experiment: as above; format: biochemical
Chain of KRAS G12V (P01116 1-169 isoform P01116-2 G12V limits assumed): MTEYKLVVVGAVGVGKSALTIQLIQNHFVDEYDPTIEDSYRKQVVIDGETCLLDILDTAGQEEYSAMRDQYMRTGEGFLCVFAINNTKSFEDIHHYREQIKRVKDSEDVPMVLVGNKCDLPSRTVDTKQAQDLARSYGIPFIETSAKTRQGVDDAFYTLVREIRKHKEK
Chain of KRAS G12V (P62937 whole entry): as the sequence (P62937 whole entry) above
How it was run: as §2

KRAS G12S = KRAS G12S (Homo sapiens, UniProt P01116+P62937, G12S); experiment: as above; format: biochemical
Chain of KRAS G12S (P01116 1-169 isoform P01116-2 G12S limits assumed): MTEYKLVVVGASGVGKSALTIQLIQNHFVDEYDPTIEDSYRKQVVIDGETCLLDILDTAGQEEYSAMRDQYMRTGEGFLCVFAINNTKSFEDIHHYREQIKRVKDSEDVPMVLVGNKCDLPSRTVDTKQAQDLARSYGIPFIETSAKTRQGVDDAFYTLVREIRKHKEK
Chain of KRAS G12S (P62937 whole entry): as the sequence (P62937 whole entry) above
How it was run: as §2

KRAS G12D = KRAS G12D (Homo sapiens, UniProt P01116+P62937, G12D); experiment: as above; format: biochemical
Chain of KRAS G12D (P01116 1-169 isoform P01116-2 G12D limits assumed): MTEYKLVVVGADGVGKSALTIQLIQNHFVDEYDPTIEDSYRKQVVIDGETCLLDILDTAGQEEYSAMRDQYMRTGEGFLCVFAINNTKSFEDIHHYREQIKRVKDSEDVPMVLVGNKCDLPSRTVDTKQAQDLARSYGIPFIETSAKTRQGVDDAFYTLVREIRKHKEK
Chain of KRAS G12D (P62937 whole entry): as the sequence (P62937 whole entry) above
How it was run: as §2

[1] = read-out: KRAS G13C FRET data, IC50
[2] = read-out: KRAS G12C FRET data, IC50
[3] = KRAS WT, read-out: KRAS WT FRET data IC50
[4] = NRAS G12C, read-out: NRAS G12C FRET data IC50
[5] = KRAS G13D, read-out: KRAS G13D FRET data IC50
[6] = KRAS G12V, read-out: KRAS G12V FRET data IC50
[7] = read-out: KRAS G12S FRET data, IC50
[8] = read-out: KRAS G12D FRET data, IC50

Row | Compound | IC50 (NCI-H358 (K-Ras G12C)) | IC50 (KRAS G13C; KRAS G13C FRET data, IC50) | IC50 (KRAS G12C; KRAS G12C FRET data, IC50) | IC50 (KRAS WT; KRAS WT FRET data IC50, KRAS WT) | IC50 (NRAS G12C; NRAS G12C FRET data IC50, NRAS G12C) | IC50 (KRAS G13D; KRAS G13D FRET data IC50, KRAS G13D) | IC50 (KRAS G12V; KRAS G12V FRET data IC50, KRAS G12V) | IC50 (KRAS G12S; KRAS G12S FRET data, IC50) | IC50 (KRAS G12D; KRAS G12D FRET data, IC50) | IC50 (KRAS G13C; [1]) | IC50 (KRAS G12C; [2]) | IC50 (KRAS WT; [3]) | IC50 (NRAS G12C; [4]) | IC50 (KRAS G13D; [5]) | IC50 (KRAS G12V; [6]) | IC50 (KRAS G12S; [7]) | IC50 (KRAS G12D; [8]) | IC50 (Capan-1 (K-Ras G12V))
1 | CCn1c(-c2cnccc2COC)c2c3cc(ccc31)-c1cc(O)cc(c1)C[C@H](NC(=O)[C@H](C(C)C)N(C)C(=O)[C@H]1CCN(C=O)C1)C(=O)N1CCC[C@H](N1)C(=O)OCC(C)(C)C2 [Example A17, (2S)—N-[(8S,14S)-22-ethyl-4-hydroxy-21-[4-(methoxymethyl)pyridin-3-yl]-18,18-dimethyl-9,15-dioxo-16-oxa-10,22,28-triazapentacyclo[18.5.2.1^2,6.1^10,14.0^23,27]nonacosa-1(26),2,4,6(29),20,23(27),24-heptaen-8-yl]-2-{1-[(3S)-1-formylpyrrolidin-3-yl]-N-methylformamido}-3-methylbutanamide] | 1000 to 10000 nM | 100 to 1000 nM | 10 to 100 nM | 100 to 1000 nM | 100 to 1000 nM | 100 to 1000 nM | 100 to 1000 nM | 100 to 1000 nM | 1000 to 10000 nM | – | – | – | – | – | – | – | – | 1000 to 10000 nM
2 | CCn1c(-c2cccnc2[C@H](C)OC)c2c3cc(ccc31)-c1cc(O)cc(c1)C[C@H](NC(=O)[C@H](C(C)C)N(C)C(=O)C1COC1)C(=O)N1CCC[C@H](N1)C(=O)OCC(C)(C)C2 [Example A18] | 100 to 1000 nM | – | – | – | – | – | – | – | – | 100 to 1000 nM | 10 to 100 nM | 100 to 1000 nM | 100 to 1000 nM | 100 to 1000 nM | 100 to 1000 nM | 100 to 1000 nM | 1000 to 10000 nM | 100 to 1000 nM
3 | CCn1c(-c2cnccc2[C@H](C)OC)c2c3cc(ccc31)-c1cc(O)cc(c1)C[C@H](NC(=O)[C@H](C(C)C)N(C)C(C)=O)C(=O)N1CCC[C@H](N1)C(=O)OCC(C)(C)C2 [Example A21] | 100 to 1000 nM | – | – | – | – | – | – | – | – | 10 to 100 nM | 100 to 1000 nM | 100 to 1000 nM | 100 to 1000 nM | 100 to 1000 nM | 100 to 1000 nM | 100 to 1000 nM | 1000 to 10000 nM | 100 to 1000 nM
4 | CCn1c(-c2cnccc2COC)c2c3cc(ccc31)-c1cc(O)cc(c1)C[C@H](NC(=O)[C@H](C(C)C)N(C)C(=O)[C@H]1CCN(C(=O)C(C)C)C1)C(=O)N1CCC[C@H](N1)C(=O)OCC(C)(C)C2 [Example A29] | 100 to 1000 nM | – | – | – | – | – | – | – | – | 1000 to 10000 nM | 100 to 1000 nM | 1000 to 10000 nM | 100 to 1000 nM | 1000 to 10000 nM | 100 to 1000 nM | 100 to 1000 nM | > 10000 nM | 1000 to 10000 nM
5 | CCn1c(-c2cnccc2COC)c2c3cc(ccc31)-c1cc(O)cc(c1)C[C@H](NC(=O)[C@H](C(C)C)N(C)C(=O)N1CC(OC)C1)C(=O)N1CCC[C@H](N1)C(=O)OCC(C)(C)C2 [Example A30] | 100 to 1000 nM | – | – | – | – | – | – | – | – | 100 to 1000 nM | 100 to 1000 nM | 100 to 1000 nM | 100 to 1000 nM | 1000 to 10000 nM | 100 to 1000 nM | 100 to 1000 nM | 1000 to 10000 nM | 100 to 1000 nM

Second part, led by results:

Row | IC50 (NCI-H358 (K-Ras G12C)) | IC50 (KRAS G13C; KRAS G13C FRET data, IC50) | IC50 (KRAS G12C; KRAS G12C FRET data, IC50) | IC50 (KRAS WT; KRAS WT FRET data IC50, KRAS WT) | IC50 (NRAS G12C; NRAS G12C FRET data IC50, NRAS G12C) | IC50 (KRAS G13D; KRAS G13D FRET data IC50, KRAS G13D) | IC50 (KRAS G12V; KRAS G12V FRET data IC50, KRAS G12V) | IC50 (KRAS G12S; KRAS G12S FRET data, IC50) | IC50 (KRAS G12D; KRAS G12D FRET data, IC50) | IC50 (KRAS G13C; [1]) | IC50 (KRAS G12C; [2]) | IC50 (KRAS WT; [3]) | IC50 (NRAS G12C; [4]) | IC50 (KRAS G13D; [5]) | IC50 (KRAS G12V; [6]) | IC50 (KRAS G12S; [7]) | IC50 (KRAS G12D; [8]) | Compound | IC50 (Capan-1 (K-Ras G12V))
6 | 100 to 1000 nM | – | – | – | – | – | – | – | – | 100 to 1000 nM | 10 to 100 nM | 100 to 1000 nM | 100 to 1000 nM | 100 to 1000 nM | 100 to 1000 nM | 100 to 1000 nM | 1000 to 10000 nM | CCn1c(-c2cnccc2COC)c2c3cc(ccc31)-c1cc(O)cc(c1)C[C@H](NC(=O)[C@H](C(C)C)N(C)C(=O)C1C[C@@H]1C)C(=O)N1CCC[C@H](N1)C(=O)OCC(C)(C)C2 (stereo partly shown) [Example A19] | 100 to 1000 nM
7 | 100 to 1000 nM | – | – | – | – | – | – | – | – | 100 to 1000 nM | 100 to 1000 nM | 100 to 1000 nM | 100 to 1000 nM | 100 to 1000 nM | 100 to 1000 nM | 100 to 1000 nM | 1000 to 10000 nM | CCn1c(-c2cnccc2COC)c2c3cc(ccc31)-c1cc(O)cc(c1)C[C@H](NC(=O)[C@H](C(C)C)N(C)C(=O)[C@H]1CCOC1)C(=O)N1CCC[C@H](N1)C(=O)OCC(C)(C)C2 [Example A26] | 100 to 1000 nM

From patent US20230233569A1 (Revolution Medicines, Inc., priority 2020, published 2023)
